Results published in patent US20020016358A1, “Cosmetic composition” (NOF CORPORATION, priority 2000, published 2002).

Tests used:
[1] = tested on: human melanoma cell (HM3KO); assay: Suppression of melanin formation in human melanoma cell (HM3KO); assay type: cell-based; conditions: sample 10 μM in medium, cultivation 6 days, absorbance 410 nm of cell lysate, no addition = 100%
Description: (Confirmation of Whitening Effect-1: Suppression of Melanin Formation) Using the obtained compounds of formulae (II) to (V), the effect of suppressing melanin production of human melanoma cell (HM3KO) was examined in vitro. More specifically, HM3KO was cultured to about 5×10^5 by a conventional method, collected by centrifugation to obtain pellets, and inoculated the pellet to a culture dish of 10 cm diameter containing an Eagle's medium supplemented with 10% fetal bovine serum and cultured at 37° C. for 24 hours. Thereafter, each polymethoxyflavone of formulae (II) to (V) was added, or kojic acid or arbutin for comparison was added thereto so that the final addition concentration was 10 μM, followed by cultivation for 6 days. After the cultivation, cells were collected by centrifugation, and 1 ml of 2N sodium hydroxide aqueous solution was added thereto to obtain cell lysate. The absorbance in a wavelength of 410 nm of the cell lysate was measured with a spectrophotometer. Here, the absorbance of the cell lysate to which a sample is not added is defined as 100% of the melanin production ratio, and the melanin production ratios are shown as relative values, measuring the absorbance of each cell lysate.

[2] = tested on: UV-induced pigmentation; assay: Suppression of UV-induced pigmentation in brown guinea pigs; assay type: in vivo; conditions: 40 μl twice a day, after UV 0.5 J/cm2; for Pigmentation degree ΔL, After 40 days: no addition −5.2; for Pigmentation degree ΔL, After 20 days: no addition −7.8
Description: (Confirmation of Whitening Effect-2: Suppression of UV-induced Pigmentation)
Using brown guinea pigs, the suppression of UV-induced pigmentation was examined in vivo. More specifically, the backs of the brown guinea pigs were shaved and covered with an ultraviolet shielding plate provided with 6 rectangular holes of 2×2 cm, followed by irradiation of UV (0.5 J/cm^2) to induce pigmentation. Thereafter, 40 μl of 70% (W/W) ethanol aqueous solution containing each of polymethoxyflavone (nobiletin) of formula (III) or polymethoxyflavone (tangeretin) of formula (IV) in a concentration shown in Table 2 were applied twice a day. Then, the degrees of pigmentation before and after the application were measured.
In Table 2, the pigmentation degree ΔL was obtained by measuring a L value before UV irradiation, which is defined as 0, with a spectrophotometric calorimeter, and obtaining the difference between the L values before and after UV irradiation. A lower value ΔL corresponds to a higher pigmentation degree.

[3] = sample concentration 0.4% in 70% ethanol
[4] = sample concentration 4% in 70% ethanol, lower ΔL = more pigmentation
[5] = sample concentration 4% in 70% ethanol

Compound	Melanin production ratio (% of control) [1]	Pigmentation degree ΔL, After 40 days [2, 3]	Pigmentation degree ΔL, After 20 days [2, 3]	Pigmentation degree ΔL, After 20 days [2, 4]	Pigmentation degree ΔL, After 40 days [2, 5]
O=c1cc(CO)occ1O [Kojic acid, reference compound]	96 % of control				
OC[C@H]1O[C@@H](Oc2ccc(O)cc2)[C@H](O)[C@@H](O)[C@@H]1O [Arbutin, reference compound]	97 % of control				
COc1ccc(-c2cc(=O)c3c(OC)c(OC)c(OC)c(OC)c3o2)cc1OC [formula (III), 5,6,7,8,3′,4′-hexamethoxyflavone]	35 % of control	−3.2	−5.5	−5.1	−1.9
COc1ccc(-c2cc(=O)c3c(OC)c(OC)c(OC)c(OC)c3o2)cc1 [formula (IV), 5,6,7,8,4′-pentamethoxyflavone]	55 % of control	−3.5	−6.1	−5.6	−3.3
COc1ccc(-c2cc(=O)c3c(OC)cc(OC)c(OC)c3o2)cc1OC [formula (V), 5,7,8,3′,4′-pentamethoxyflavone]	60 % of control				
COc1ccc(-c2oc3c(OC)c(OC)c(OC)c(OC)c3c(=O)c2OC)cc1OC [formula (II), 3,5,6,7,8,3′,4′-heptamethoxyflavone]	65 % of control				
